Among the data in PubChem BioAssay (NCI) are TGI and GI50 values, retold here.

Test systems include UACC-257 melanoma; LOX IMVI melanoma; HCC-2998 colon; EKVX NSCLC; KM12 colon; HOP-92 NSCLC; RPMI-8226 leukemia; HS 578T breast; MDA-MB-435; T-47D breast.
Assay in all cases: NCI-60 cell line screen, 48 h

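Method: 48-hour compound exposure of cells in 96-well plates, five concentrations, linear interpolation of endpoints. Abbreviation: GI50, concentration required for 50% inhibition of growth. TGI is the concentration that stops growth completely.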

Regarding `CC/C=C\C/C=C\C1CC(=O)NCCCNCCCCN1` (configuration not stated), the TGI in the assay on UACC-257 melanoma, with LOX IMVI melanoma, with HCC-2998 colon, in the assay on EKVX NSCLC, with KM12 colon and with HOP-92 NSCLC was over 100 µM throughout.
For the compound `c1cc[c]([Sn]([S]c2cccc3cccnc23)([c]2ccccc2)[c]2ccccc2)cc1`, the results for the GI50 in the assay with LOX IMVI melanoma, in the assay on HCC-2998 colon and in the assay with EKVX NSCLC were 0.0159 µM, 0.0433 µM and 0.0558 µM, respectively. Further, the TGI with LOX IMVI melanoma is 0.0304 µM; in the assay on HCC-2998 colon it was 0.096 µM; in the assay with EKVX NSCLC, 0.37 µM.
For the compound `COc1ccc(C2=NC(C)(C)CO2)cc1`, the TGI in the assay with UACC-257 melanoma, in the assay on LOX IMVI melanoma, with EKVX NSCLC, in the assay with RPMI-8226 leukemia, in the assay on KM12 colon and in the assay with HOP-92 NSCLC was over 100 µM each time.
For `Clc1ccc(CNc2nc3ccccc3nc2-c2cccs2)c(Cl)c1`, the TGI in the assay on UACC-257 melanoma was over 100 µM; in the assay with HCC-2998 colon, over 100 µM; in the assay with EKVX NSCLC, over 100 µM; in the assay on RPMI-8226 leukemia it was over 100 µM; with HOP-92 NSCLC it was 76.6 µM.
Consider `C=C1C(=O)O[C@H]2[C@H]1CC/C(COC(=O)c1cc3cc(OC)ccc3[nH]1)=C\CC[C@@]1(C)O[C@@H]21`, for which the GI50 was 1.61 µM in the assay with UACC-257 melanoma; 0.3 µM with LOX IMVI melanoma; 1.54 µM in the assay with HCC-2998 colon; 3.09 µM in the assay with HS 578T breast; 1.5 µM with EKVX NSCLC; 0.509 µM in the assay on RPMI-8226 leukemia. Moreover, the GI50 was 1.54 µM in the assay on KM12 colon, 0.445 µM in the assay on HOP-92 NSCLC and 0.621 µM with MDA-MB-435. Besides, the TGI with UACC-257 melanoma is 3 µM; in the assay on LOX IMVI melanoma, 1.34 µM; with HCC-2998 colon it was 2.91 µM; in the assay with HS 578T breast it was 11.8 µM; in the assay with EKVX NSCLC it was 3.1 µM; with RPMI-8226 leukemia, 3.87 µM. The TGI with KM12 colon turned out to be 3.33 µM; with HOP-92 NSCLC it was 1.83 µM; in the assay on MDA-MB-435, 2.03 µM.
As to `CCOc1cccc2nc3cccc(C(=O)NCCN(C)C)c3nc12`, the TGI in the assay with UACC-257 melanoma stood at 6.45 µM; in the assay with LOX IMVI melanoma it was 2.11 µM; in the assay on HCC-2998 colon, 3.53 µM; with EKVX NSCLC, 11.6 µM; with RPMI-8226 leukemia, 6.46 µM; with KM12 colon, 9.36 µM.
Take `Clc1cc(Cl)c2c(Cl)cc(Cl)c3c2c1N=S=N3`: the TGI in the assay on UACC-257 melanoma, in the assay on LOX IMVI melanoma, in the assay on HCC-2998 colon, in the assay with EKVX NSCLC, with RPMI-8226 leukemia and with KM12 colon was over 100 µM in each case. In the assay on HOP-92 NSCLC, this compound had a TGI of over 100 µM.
On to `CCOC(=O)Cc1nc(/C(C#N)=C/c2ccco2)[nH]c(=O)c1C#N`, for which the TGI in the assay on UACC-257 melanoma, in the assay on LOX IMVI melanoma, in the assay with HCC-2998 colon, in the assay on EKVX NSCLC, in the assay with RPMI-8226 leukemia and in the assay on KM12 colon was over 100 µM each time. The TGI in the assay with HOP-92 NSCLC is over 100 µM.
As to `COc1ccc(C2C(N)=NCC2c2ccccn2)cc1` (configuration not stated), the TGI in the assay with UACC-257 melanoma, with LOX IMVI melanoma, in the assay with HCC-2998 colon, with EKVX NSCLC, in the assay with RPMI-8226 leukemia and in the assay with KM12 colon was over 100 µM in each case. This compound also registered a TGI with HOP-92 NSCLC of over 100 µM.
In the case of `Oc1c2c(c(O)c3ccccc13)=N[C@@H](c1ccccc1)[C@H](c1ccccc1)N=2`, the TGI in the assay with UACC-257 melanoma, with LOX IMVI melanoma, in the assay on HCC-2998 colon, in the assay on RPMI-8226 leukemia, in the assay with KM12 colon and with HOP-92 NSCLC was over 100 µM each time.
`CC1(C)CCc2cc3c(cc2O1)OCCC3=O`: the TGI in the assay on UACC-257 melanoma, in the assay with LOX IMVI melanoma, with HCC-2998 colon, in the assay with EKVX NSCLC, in the assay with RPMI-8226 leukemia and in the assay with KM12 colon was over 100 µM throughout. In the assay on HOP-92 NSCLC, the TGI is over 100 µM.
Regarding `CN(C)C(=S)/N=c1\ss/c(=N\S(=O)(=O)c2ccccc2)n1-c1ccccc1`, the TGI in the assay with UACC-257 melanoma, with LOX IMVI melanoma, in the assay with HCC-2998 colon, in the assay with EKVX NSCLC, in the assay with RPMI-8226 leukemia and in the assay with KM12 colon was over 100 µM each time. For the same compound, the TGI with HOP-92 NSCLC turned out to be 67 µM.
Consider `CC(O)CN1C(=O)NC(Cc2ccccc2)C1=O` (configuration not stated), for which the TGI in the assay with UACC-257 melanoma, in the assay with LOX IMVI melanoma, in the assay on HCC-2998 colon, with EKVX NSCLC, in the assay with KM12 colon and in the assay with HOP-92 NSCLC was over 100 µM throughout.
On to `O=C(Nc1cc(-c2ccccc2)[nH]n1)c1ccc(Cl)cc1`, for which the GI50 with UACC-257 melanoma is over 100 µM; in the assay with LOX IMVI melanoma it was 9.23 µM; in the assay with HCC-2998 colon, over 100 µM; with HS 578T breast, 3.96 µM; in the assay with EKVX NSCLC it was over 100 µM; in the assay with RPMI-8226 leukemia it was over 100 µM. Also, the figures for the GI50 with KM12 colon and in the assay with HOP-92 NSCLC were 3.28 µM and 37.1 µM, respectively. In addition, the TGI with UACC-257 melanoma is over 100 µM; in the assay with LOX IMVI melanoma, over 100 µM; in the assay with HCC-2998 colon, over 100 µM; with HS 578T breast it was 65.9 µM; in the assay on EKVX NSCLC, over 100 µM; in the assay on RPMI-8226 leukemia, over 100 µM. The TGI in the assay with KM12 colon and in the assay on HOP-92 NSCLC was over 100 µM each time.
As for `C=C1CC(COc2cc(Cl)nc(N)n2)C1`, the GI50 in the assay with HS 578T breast is 49.9 µM; in the assay with EKVX NSCLC, 25.6 µM; with RPMI-8226 leukemia, 21.7 µM; in the assay with T-47D breast, 23.3 µM; in the assay on KM12 colon it was 25.5 µM; in the assay with HOP-92 NSCLC it was 23.1 µM. Further, the TGI stood at 60.8 µM with RPMI-8226 leukemia and 71.5 µM with HOP-92 NSCLC.
For `CCCS(=O)(=O)c1nc(NC2CC2)cc(-c2ccc3c(ccn3C3CC(C)(C)NC(C)(C)C3)c2)n1`, the GI50 was 1.67 µM in the assay with LOX IMVI melanoma; 2.1 µM in the assay on HS 578T breast; 1.84 µM in the assay with EKVX NSCLC; 2 µM in the assay with RPMI-8226 leukemia; 1.83 µM with KM12 colon; 1.46 µM in the assay with HOP-92 NSCLC. Besides, the GI50 in the assay on MDA-MB-435 is 1.47 µM. The TGI is 3.17 µM in the assay on LOX IMVI melanoma; 4.93 µM in the assay on HS 578T breast; 3.71 µM with EKVX NSCLC; 5.27 µM in the assay with RPMI-8226 leukemia; 3.67 µM in the assay with KM12 colon; 3.08 µM in the assay on HOP-92 NSCLC. The compound further came in with a TGI in the assay with MDA-MB-435 of 2.95 µM.
